This is an account of results in patent US20120149678A1, “Organonitro Compounds for Use in Treating Non-Hodgkin's Lymphoma and Leukemia, and Methods Relating Thereto” (priority 2010, published 2012).

Each structure is given as a SMILES string.

The test system of the assay is B-cell lymphoma Daudi cells. Briefly: ABDNAZ-induced apoptosis of B-cell lymphoma Daudi cells (sub-G1 cells, propidium iodide staining, flow cytometry). In kind it is cell-based. On the procedure:
B-cell lymphoma Daudi cells were grown and maintained in Dulbecco's modified essential medium (DMEM) (INVITROGEN™, Grand Island, N.Y.) supplemented with 10% fetal calf serum, 100 units/mL penicillin, and 100 μg/mL streptomycin in a 37° C. humidified incubator with a mixture of 95% air and 5% CO2. Experiments were performed on exponentially growing cells with a cell population doubling time of approximately 20-36 hours.
After exposing the B-cell lymphoma Daudi cells to ABDNAZ, apoptotic cell death was quantitated by measuring the number of subdiploid (sub-G1) cells stained with propidium iodide (PI), according to a procedure described previously by Ning and coworkers. Ning, S., and Knox, S. J. in Int. J. Radiat. Oncol. Biol. Phys. (2004) 60:197-203. Briefly, ABDNAZ-treated and untreated control cells were collected and fixed with cold 100% ethanol. Cells were pelleted, treated with 100 μg/mL of RNase A in PBS-EDTA solution for 30 min and stained with 50 μg/mL of PI for 10 min at room temperature. The DNA content was analyzed with a FACScan flowcytometer (Becton Dickison, San Jose, Calif.). The percentage of cells in the sub-G1 phase was calculated as described previously by Ning and coworkers.
To examine whether ABDNAZ-induced apoptotic cell death was due to the generation of reactive oxygen species (ROS), Daudi cells were treated with a glutathione (GSH) precursor, N-acetylcysteine (NAC), and a GSH synthesis inhibitor, buthionine-(S,R)-sulfoxime (BSO), and the level of apoptosis was measured.

Compound `O=C(CBr)N1CC([N+](=O)[O-])([N+](=O)[O-])C1` [ABDNAZ, 1-bromoacetyl-3,3-dinitroazetidine] had a Daudi cell apoptosis (2 mM ABDNAZ, measured at 24 hours (FIG. 1)) of 30% and a Daudi cell apoptosis (4 mM ABDNAZ, measured at 72 hours after exposure (FIG. 1)) of 45%. Also, the ABDNAZ-induced apoptosis is listed as 5% (Daudi cells pre-treated with N-acetylcysteine (GSH precursor) (FIG. 2)); 25% (Daudi cells pre-treated with buthionine-(S,R)-sulfoxime (GSH synthesis inhibitor) (FIG. 2)); 11% (Daudi cells, ABDNAZ without pre-treatment (FIG. 2)).
